{"source": "patent US4713486A", "about": "“Novel compounds” (Beecham Group p.l.c., priority 1982, dated 1987)", "key": {"cyclo-oxygenase": {"target": "T1, cyclo-oxygenase (Bos taurus, UniProt O62664)", "T1 construct": "lyophilised bovine seminal vesicle microsomes; from tissue; host or cells: bovine seminal vesicle microsomes", "T1 sequence (O62664 25-600)": "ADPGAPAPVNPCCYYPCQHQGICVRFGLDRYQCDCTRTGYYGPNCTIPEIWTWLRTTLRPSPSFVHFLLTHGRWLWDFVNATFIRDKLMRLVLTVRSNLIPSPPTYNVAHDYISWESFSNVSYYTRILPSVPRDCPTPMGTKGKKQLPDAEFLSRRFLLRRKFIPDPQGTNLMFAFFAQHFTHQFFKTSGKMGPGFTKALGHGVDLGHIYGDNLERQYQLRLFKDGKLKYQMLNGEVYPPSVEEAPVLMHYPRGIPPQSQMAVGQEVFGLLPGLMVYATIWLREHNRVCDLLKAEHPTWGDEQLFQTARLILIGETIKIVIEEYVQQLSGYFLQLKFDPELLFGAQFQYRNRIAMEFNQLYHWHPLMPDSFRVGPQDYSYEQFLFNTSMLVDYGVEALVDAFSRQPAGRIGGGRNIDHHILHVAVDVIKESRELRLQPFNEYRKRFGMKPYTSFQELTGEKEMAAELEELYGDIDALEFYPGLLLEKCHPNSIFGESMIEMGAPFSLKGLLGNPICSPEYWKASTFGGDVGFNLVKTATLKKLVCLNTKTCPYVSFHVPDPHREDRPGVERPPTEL", "test": "Cyclo-oxygenase Screen: inhibition of cyclo-oxygenase in bovine seminal vesicle microsomes", "assay_type": "biochemical", "conditions": "50 μM compound, pH 8.0, 37° C., 5 min preincubation, 2 min reaction, 5-15 μM arachidonic acid, read-out: Cyclooxygenase Inhibition at 50 μM", "method": "(2) Cyclo-oxygenase Screen\nThe inhibition of cyclo-oxygenase was measured in a buffered incubation (0.2M Tris-HCI, pH 8.0 containing 1 mM ethylene diaminetetraacetic acid) comprising 0.96 mg lyophilised bovine seminal vesicle microsomes, 5-15 μM arachidonic acid containing 0.2 μCi [1--^14 C] arachidonic acid, 2 mM glutathione, […], 1 μM haemoglobin and compound (0-0.05 mM in 5 μl dimethylsulphoxide or absolute ethanol) in a total volume of 2.0 ml. Compounds were preincubated with the incubation constitutents for 5 min at 37° C. before the reaction was started by the addition of the arachidonic acid. The reaction was continued at 37° C. for 2 min, then stopped by placing the incubations on ice and the addition of 1.2 ml 0.2M citric acid. Unmetabolised substrate and prostaglandin products were extracted in ethyl acetate (2×4 ml), the combined extracts washed with 0.8 ml water, and separated by thin-layer chromatography (Kieselgel GF254 plates in ethyl acetate:acetone:glacial acetate acid, 90:10:1, v/v). Recovery was 65-80%. The regions on the thin-layer chromatography plate that chromatographed with authentic arachidonic acid or prostaglandins E2 and F2 α (Rf 's 0.70. 0.28 and 0.16 respectively) were scraped and the radioactivity in each determined by liquid scintillation counting with a correction for quenching being made by the external standard-channels ratio method. Inhibition of cyclo-oxygenase activity was calculated from the decrease in prostaglandin formation. Each compound concentration was tested in triplicate and the 50% inhibitory concentration, if determined, was calculated by linear regression from the inhibitory data at, at least three different compound concentrations."}, "soybean lipoxygenase": {"target": "T2, soybean lipoxygenase (Glycine max, UniProt P08170)", "T2 sequence (P08170 1-839)": "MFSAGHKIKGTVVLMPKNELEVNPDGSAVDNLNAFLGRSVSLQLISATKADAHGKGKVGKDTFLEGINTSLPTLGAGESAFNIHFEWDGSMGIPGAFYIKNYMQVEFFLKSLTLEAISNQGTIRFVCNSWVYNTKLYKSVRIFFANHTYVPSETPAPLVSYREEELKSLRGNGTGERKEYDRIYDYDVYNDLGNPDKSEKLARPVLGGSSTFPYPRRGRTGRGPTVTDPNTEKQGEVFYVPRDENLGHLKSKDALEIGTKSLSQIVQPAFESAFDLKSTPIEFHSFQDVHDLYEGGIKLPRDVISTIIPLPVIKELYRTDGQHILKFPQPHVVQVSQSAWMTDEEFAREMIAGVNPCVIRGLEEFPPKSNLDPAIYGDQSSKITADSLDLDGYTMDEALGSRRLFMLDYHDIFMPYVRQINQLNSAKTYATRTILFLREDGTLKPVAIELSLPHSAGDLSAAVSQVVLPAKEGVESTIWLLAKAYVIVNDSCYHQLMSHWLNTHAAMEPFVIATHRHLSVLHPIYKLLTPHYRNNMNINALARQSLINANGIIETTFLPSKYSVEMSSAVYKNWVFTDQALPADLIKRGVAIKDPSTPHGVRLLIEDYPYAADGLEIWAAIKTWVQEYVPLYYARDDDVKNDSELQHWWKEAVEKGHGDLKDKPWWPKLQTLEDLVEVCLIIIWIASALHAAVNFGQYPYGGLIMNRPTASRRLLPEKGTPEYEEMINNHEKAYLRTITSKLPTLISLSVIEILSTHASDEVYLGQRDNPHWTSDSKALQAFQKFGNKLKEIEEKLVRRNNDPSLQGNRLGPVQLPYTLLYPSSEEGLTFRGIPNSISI", "test": "Lipoxygenase Screen: inhibition of soybean lipoxygenase activity", "assay_type": "biochemical", "conditions": "25° C., pH 9.0, 1000 I.U. soybean lipoxygenase, 0.017 mM arachidonic acid, 5 min preincubation; range in parentheses not explained; Example 9 as N-methylglucamine salt", "method": "Inhibition of lipoxygenase activity was measured at 25° C. in a buffered incubation system (0.2M sodium borate, pH 9.0) comprising 1000 I.U. soybean lipoxygenase, 0.017 mM arachidonic acid, and compound (0-0.050 mM, dissolved in absolute ethanol:0.9% w/v saline, 30:70 v/v) in a total volume of 2.5 ml. Enzyme and compound were preincubated together at 25° C. for 5 minutes prior to initiation of the lipoxygenase reaction by the addition of the arachidonic acid. Lipoxygenase activity was measured as the rate of the initial increase in absorbance at 235 nm due to the formation of peroxidised forms of arachidonic acid. Inhibitory activity was measured at at least three compound concentrations and the 50% inhibitory concentration determined from the plot of % inhibition versus compound concentration."}}, "data": [{"smiles": "CCCCCCCCCCC/C=C/c1ccc(CCC(=O)O)cc1", "note": "[Example 41, 3-{4-[(E)-1-Tridecenyl]phenyl}propanoic acid]", "values": [{"measurement": "inhibition at 50 µM", "setting": "cyclo-oxygenase", "result": 40, "unit": "%"}]}, {"smiles": "CCCCCCCCC/C=C/c1ccc(/C=C/C(=O)O)cc1", "note": "[Example 26]", "values": [{"measurement": "IC50", "setting": "soybean lipoxygenase", "result": 52.3, "unit": "µM"}, {"measurement": "inhibition at 50 µM", "setting": "cyclo-oxygenase", "result": 52, "unit": "%"}]}, {"smiles": "CCCCCCCCCCC/C=C\\c1ccccc1OCCC(=O)O", "note": "[Example 61, (Z) 3-[2-(1-tridecenyl)phenoxy]-propanoic acid]", "values": [{"measurement": "inhibition at 50 µM", "setting": "cyclo-oxygenase", "result": 78.9, "unit": "%"}]}, {"smiles": "CCCCCCCCCCC/C=C/c1ccc(/C=C/C(=O)O)cc1", "note": "[Example 24, 4-[(E)-1-Tridecenyl]cinnamic acid]", "values": [{"measurement": "IC50", "setting": "soybean lipoxygenase", "result": 30, "unit": "µM"}, {"measurement": "inhibition at 50 µM", "setting": "cyclo-oxygenase", "result": 52, "unit": "%"}]}, {"smiles": "CCCCCCCCCCC/C=C/c1ccccc1OCCCCC(=O)O", "note": "[Example 87]", "values": [{"measurement": "inhibition at 50 µM", "setting": "cyclo-oxygenase", "result": 67, "unit": "%"}]}, {"smiles": "CCCCCCCCCCCCC/C=C\\c1ccc(/C=C/C(=O)O)cc1", "note": "[Example 29]", "values": [{"measurement": "inhibition at 50 µM", "setting": "cyclo-oxygenase", "result": 66.5, "unit": "%"}]}, {"smiles": "CCCCCCCCC/C=C\\c1ccc(/C=C/C(=O)O)cc1", "note": "[Example 27]", "values": [{"measurement": "IC50", "setting": "soybean lipoxygenase", "result": 46.6, "unit": "µM"}, {"measurement": "inhibition at 50 µM", "setting": "cyclo-oxygenase", "result": 70.5, "unit": "%"}]}, {"smiles": "CCCCCCCCCCC/C=C\\c1ccc(/C=C/C(=O)O)cc1", "note": "[Example 25]", "values": [{"measurement": "IC50", "setting": "soybean lipoxygenase", "result": 35.9, "unit": "µM"}, {"measurement": "inhibition at 50 µM", "setting": "cyclo-oxygenase", "result": 25.6, "unit": "%"}]}, {"smiles": "CCCCCCCCCCC/C=C\\c1ccccc1OCC(=O)O", "note": "[Example 60, (Z) 2-[2-(1-tridecenyl)-phenoxy]ethanoic acid]", "values": [{"measurement": "inhibition at 50 µM", "setting": "cyclo-oxygenase", "result": 92.4, "unit": "%"}]}, {"smiles": "CCCCCCCCC/C=C\\c1ccc(OCCCC(=O)O)cc1", "note": "[Example 92]", "values": [{"measurement": "IC50", "setting": "soybean lipoxygenase", "result": 42.8, "unit": "µM"}]}, {"smiles": "CCCCCCCCCCCC#Cc1ccccc1/C=C/C(=O)O", "note": "[Example 12]", "values": [{"measurement": "IC50", "setting": "soybean lipoxygenase", "result": 85.7, "unit": "µM"}, {"measurement": "inhibition at 50 µM", "setting": "cyclo-oxygenase", "result": 86.5, "unit": "%"}]}, {"smiles": "CCCCCCCCCCCC#Cc1ccc(/C=C/C(=O)O)cc1", "note": "[Example 9, 4-(1-Tridecynyl)cinnamic acid]", "values": [{"measurement": "IC50", "setting": "soybean lipoxygenase", "result": 272, "unit": "µM"}]}, {"smiles": "CCCCCCCCCC/C=C\\c1ccc(OCCC(=O)O)cc1", "note": "[Example 90]", "values": [{"measurement": "IC50", "setting": "soybean lipoxygenase", "result": 75.3, "unit": "µM"}]}, {"smiles": "CCCCCCCCCCC/C=C\\c1cccc(/C=C/C(=O)O)c1", "note": "[Example 31]", "values": [{"measurement": "inhibition at 50 µM", "setting": "cyclo-oxygenase", "result": 91, "unit": "%"}]}, {"smiles": "CCCCCCCCCCC/C=C\\c1ccccc1CCC(=O)O", "note": "[Example 43, 3-{2-[(Z)-1-Tridecenyl]phenyl}propanoic acid]", "values": [{"measurement": "IC50", "setting": "soybean lipoxygenase", "result": 18.4, "unit": "µM"}, {"measurement": "inhibition at 50 µM", "setting": "cyclo-oxygenase", "result": 62.7, "unit": "%"}]}, {"smiles": "CCCCCCCCCCC/C=C\\c1ccccc1OCCCC(=O)O", "note": "[Example 62, (Z) 4-[2-(1-tridecenyl)phenoxy]-butanoic acid]", "values": [{"measurement": "IC50", "setting": "soybean lipoxygenase", "result": 4.2, "unit": "µM"}, {"measurement": "inhibition at 50 µM", "setting": "cyclo-oxygenase", "result": 67, "unit": "%"}]}, {"smiles": "CCCCCCCCCCC/C=C\\c1ccccc1/C=C/C(=O)O", "note": "[Example 30]", "values": [{"measurement": "IC50", "setting": "soybean lipoxygenase", "result": 23.2, "unit": "µM"}, {"measurement": "inhibition at 50 µM", "setting": "cyclo-oxygenase", "result": 26, "unit": "%"}]}, {"smiles": "CCCCCCCCCCC/C=C\\c1ccc(/C=C/C(=O)OC)cc1", "note": "[Example 15, Methyl 4-[(Z)-1-tridecenyl]cinnamate]", "values": [{"measurement": "IC50", "setting": "soybean lipoxygenase", "result": 230, "unit": "µM"}]}, {"smiles": "CCCCCCCCCCCC#Cc1ccccc1CCC(=O)O", "note": "[Example 42, 3[2-(1-Tridecynyl)phenyl]propanoic acid]", "values": [{"measurement": "IC50", "setting": "soybean lipoxygenase", "result": 20, "unit": "µM"}, {"measurement": "inhibition at 50 µM", "setting": "cyclo-oxygenase", "result": 80, "unit": "%"}]}, {"smiles": "CCCCCCCCCCC/C=C\\c1ccc(CCC(=O)O)cc1", "note": "[Example 40, 3-{4-[(Z)-1-Tridecenyl]phenyl}propanoic acid]", "values": [{"measurement": "inhibition at 50 µM", "setting": "cyclo-oxygenase", "result": 67, "unit": "%"}]}, {"smiles": "CCCCCCCCCCCC#Cc1cccc(/C=C/C(=O)O)c1", "note": "[Example 13]", "values": [{"measurement": "inhibition at 50 µM", "setting": "cyclo-oxygenase", "result": 79.8, "unit": "%"}]}, {"smiles": "CCCCCCCC/C=C\\c1ccccc1OCCCC(=O)O", "note": "[Example 82]", "values": [{"measurement": "inhibition at 50 µM", "setting": "cyclo-oxygenase", "result": 72, "unit": "%"}]}, {"smiles": "CCCCCCCCCCC/C=C\\c1ccc(OCC(=O)O)cc1", "note": "[Example 89]", "values": [{"measurement": "IC50", "setting": "soybean lipoxygenase", "result": 124, "unit": "µM"}, {"measurement": "inhibition at 50 µM", "setting": "cyclo-oxygenase", "result": 51, "unit": "%"}]}, {"smiles": "CCCCCCCCCCC/C=C\\c1ccccc1OCCCC(=O)OCC", "note": "[Example 55, (Z) Ethyl 4-[2-(1-tridecenyl)phenoxy)-butanoate]", "values": [{"measurement": "IC50", "setting": "soybean lipoxygenase", "result": 55.4, "unit": "µM"}]}, {"smiles": "CCCCCCCCCCCC#Cc1ccc(/C=C/C(=O)OC)cc1", "note": "[Example 4, Methyl 4-(1-tridecynyl)cinnamate]", "values": [{"measurement": "IC50", "setting": "soybean lipoxygenase", "result": 142, "unit": "µM"}]}, {"smiles": "CCCCCCCCCCC/C=C/c1ccccc1OCCCC(=O)O", "note": "[Example 85]", "values": [{"measurement": "inhibition at 50 µM", "setting": "cyclo-oxygenase", "result": 64, "unit": "%"}]}]}
